Measured values taken from the supplement of paper PMC10331698.
± gives the standard deviation of the averaged measurements.

Key:
Experiment in all cases: level (log10 ratio to DMSO vehicle control); higher = higher biomarker level / cell amount than vehicle control
[1] = compound: C[C@@H]1C[C@H]2[C@@H]3CCC4=CC(=O)C=C[C@]4(C)[C@@]3(F)[C@@H](O)C[C@]2(C)[C@@]1(O)C(=O)COP(=O)(O)O [Dexamethasone sodium phosphate] (in DMSO)
Method: (§1)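 BioMAP Diversity Plus panel of 12 human primary cell co-culture systems (3C, 4H, LPS, SAg, BT, BF4T, BE3C, CASM3C, HDF3CGF, KF3CT, MyoF, Mphg). Compounds were added 1 h before stimulation and left for 24 h (MyoF 48 h; BT 72 h for soluble read-outs or 6 d for IgG). Biomarkers were read by ELISA, cytotoxicity by SRB, PBMC viability and proliferation by Alamar Blue. Each well value was divided by the mean of 8 DMSO control wells on the same plate and log10 transformed; duplicate blinded samples were tested at 4 concentrations.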

[2] = compound: NS(=O)(=O)C(F)(F)C(F)(F)C(F)(F)C(F)(F)C(F)(F)C(F)(F)C(F)(F)C(F)(F)F [Perfluorooctanesulfonamide] (in DMSO)
Method: as §1

Perfluoroundecanoic acid = compound: O=C(O)C(F)(F)C(F)(F)C(F)(F)C(F)(F)C(F)(F)C(F)(F)C(F)(F)C(F)(F)C(F)(F)C(F)(F)F [Perfluoroundecanoic acid] (in DMSO); conditions: 6700 nM
Method: as §1

Perfluorononanoic acid = compound: O=C(O)C(F)(F)C(F)(F)C(F)(F)C(F)(F)C(F)(F)C(F)(F)C(F)(F)C(F)(F)F [Perfluorononanoic acid] (in DMSO)
Method: as §1

[3] = compound: O=C(O)C(F)(OC(F)(F)C(F)(OC(F)(F)C(F)(OC(F)(F)C(F)(F)C(F)(F)F)C(F)(F)F)C(F)(F)F)C(F)(F)F [Perfluoro-(2,5,8-trimethyl-3,6,9-trioxadodecanoic)acid] (in DMSO)
Method: as §1

[4] = compound: O=S(=O)(O)C(F)(F)C(F)(F)OC(F)(F)C(F)(F)F [Perfluoro(2-ethoxyethane)sulfonic acid] (in DMSO)
Method: as §1

[5] = compound: OCCC(F)(F)C(F)(F)C(F)(F)C(F)(F)F [4:2 Fluorotelomer alcohol] (in DMSO)
Method: as §1

Row | Test System | level (log10) ([1]; 1500 nM) | level (log10) ([1]; 4400 nM) | level (log10) ([1]; 13000 nM) | level (log10) ([1]; 40000 nM) | level (log10) ([2]; 6700 nM) | level (log10) ([2]; 20000 nM) | level (log10) (Perfluoroundecanoic acid) | level (log10) (Perfluorononanoic acid; 6700 nM) | level (log10) (Perfluorononanoic acid; 20000 nM) | level (log10) ([3]; 1100 nM) | level (log10) ([3]; 3300 nM) | level (log10) ([3]; 10000 nM) | level (log10) ([4]; 6700 nM) | level (log10) ([4]; 20000 nM) | level (log10) ([4]; 60000 nM) | level (log10) ([5]; 6700 nM) | level (log10) ([5]; 20000 nM) | level (log10) ([5]; 60000 nM)
1 | BT:sTNF-alpha | -0.575 ± 0.0078 | -0.553 ± 0.0099 | -0.525 ± 0.13 | -0.566 ± 0.13 | -0.045 ± 0.13 | -0.11 ± 0.15 | 0.06 ± 0.02 | -0.002 ± 0.038 | 0.0115 ± 0.073 | -0.0445 ± 0.052 | -0.028 ± 0.021 | 0.0375 ± 0.079 | -0.002 ± 0.037 | -0.012 ± 0.083 | 0.029 ± 0.058 | 0.126 ± 0.061 | 0.0895 ± 0.077 | 0.143 ± 0.14
2 | LPS:CCL2/MCP-1 | 0.023 ± 0.011 | -0.0045 ± 0.012 | -0.013 ± 0.0071 | -0.0105 ± 0.088 | -0.0035 ± 0.013 | 0.0165 ± 0.0021 | 0.0015 ± 0.0078 | -0.0035 ± 0.033 | 0.0165 ± 0.016 | -0.0105 ± 0.022 | -0.014 ± 0.0042 | -0.002 ± 0.0099 | 0.012 ± 0.0057 | 0.021 ± 0.0071 | 0.032 ± 0.035 | -0.0125 ± 0.021 | -0.0095 ± 0.00071 | 0.019 ± 0.0057
3 | LPS:CD40 | 0.0175 ± 0.054 | -0.035 ± 0.03 | -0.012 ± 0.037 | -0.0635 ± 0.019 | -0.0635 ± 0.018 | -0.115 ± 0.0042 | -0.019 ± 0.05 | -0.0305 ± 0.019 | -0.039 ± 0.011 | 0.04 ± 0.1 | 0.0475 ± 0.015 | 0.007 ± 0.055 | 0.0515 ± 0.016 | 0.022 ± 0.0028 | 0.047 ± 0.016 | -0.008 ± 0.016 | -0.041 ± 0.014 | -0.032
4 | LPS:CD62E/E-Selectin | 0 ± 0.0014 | -0.015 ± 0.0014 | -0.0105 ± 0.00071 | -0.0115 ± 0.005 | -0.015 ± 0.023 | 0.018 ± 0.016 | -0.014 ± 0.016 | -0.009 ± 0.013 | -0.01 ± 0.0085 | -0.002 ± 0.0099 | -0.0115 ± 0.005 | -0.0135 ± 0.0035 | 0.0105 ± 0.022 | 0.0215 ± 0.019 | 0.0275 ± 0.0078 | 0.002 ± 0.023 | -0.0195 ± 0.012 | -0.0045 ± 0.03
5 | LPS:CD69 | 0.016 ± 0.1 | -0.009 ± 0.052 | -0.042 ± 0.038 | -0.0335 ± 0.039 | -0.0475 ± 0.0064 | -0.13 | -0.0585 ± 0.05 | -0.0275 ± 0.022 | -0.038 ± 0.013 | -0.021 ± 0.0014 | -0.0255 ± 0.0078 | -0.007 | 0.0305 ± 0.04 | -0.007 ± 0.027 | -0.023 ± 0.068 | -0.0295 ± 0.025 | -0.0135 ± 0.015 | -0.0105 ± 0.025
6 | LPS:CD106/VCAM-1 | 0.0095 ± 0.005 | -0.0285 ± 0.026 | -0.0135 ± 0.0035 | -0.0375 ± 0.023 | 0.0075 ± 0.0035 | 0.0115 ± 0.016 | -0.0095 ± 0.043 | -0.017 ± 0.014 | -0.002 ± 0.0057 | -0.009 ± 0.0099 | -0.0005 ± 0.0021 | -0.006 ± 0.0057 | 0.013 ± 0.034 | -0.007 ± 0.033 | 0.0165 ± 0.049 | -0.017 ± 0.014 | -0.0145 ± 0.005 | 0.0075 ± 0.00071
7 | LPS:CD141/Thrombomodulin | 0.05 ± 0.031 | 0.035 ± 0.028 | 0.0125 ± 0.039 | 0.032 ± 0.027 | 0.037 ± 0.072 | 0.0785 ± 0.066 | 0.018 ± 0.016 | -0.018 ± 0.048 | -0.018 ± 0.017 | -0.019 ± 0.0028 | -0.002 ± 0.0042 | 0.0005 ± 0.0021 | 0.067 ± 0.0085 | 0.057 ± 0.055 | 0.051 ± 0.072 | -0.037 ± 0.034 | 0.0025 ± 0.03 | -0.005 ± 0.02
8 | LPS:CD142/Tissue Factor | 0.0495 ± 0.026 | 0.03 ± 0.023 | 0.014 ± 0.03 | 0.038 ± 0.028 | -0.024 ± 0.047 | -0.043 ± 0.0071 | -0.023 ± 0.014 | 0.01 ± 0.016 | -0.001 ± 0.02 | 0.0115 ± 0.013 | -0.011 ± 0.021 | 0.022 ± 0.0085 | 0.0685 ± 0.042 | 0.1 ± 0.057 | 0.0485 ± 0.093 | -0.0015 ± 0.0064 | -0.025 ± 0.047 | 0.0235 ± 0.016
9 | LPS:CXCL8/IL-8 | 0.026 ± 0.014 | -0.017 ± 0.02 | -0.0135 ± 0.025 | -0.0475 ± 0.076 | 0.005 ± 0.016 | -0.008 ± 0.0014 | -0.04 ± 0.035 | 0.024 ± 0.013 | 0.0355 ± 0.0092 | 0.0045 ± 0.016 | -0.0045 ± 0.0064 | 0.0095 ± 0.0021 | 0.0585 ± 0.025 | 0.108 ± 0.07 | 0.21 ± 0.04 | -0.0255 ± 0.015 | -0.0005 ± 0.0078 | -0.005 ± 0.024
10 | LPS:IL-1alpha | -0.0215 ± 0.0035 | -0.0475 ± 0.1 | -0.0575 ± 0.035 | -0.0835 ± 0.08 | -0.0195 ± 0.025 | -0.013 ± 0.0071 | -0.103 ± 0.019 | -0.0315 ± 0.0064 | -0.03 ± 0.014 | 0.0135 ± 0.00071 | -0.0305 ± 0.023 | -0.005 ± 0.059 | 0.026 ± 0.025 | 0.044 ± 0.016 | 0.011 ± 0.027 | -0.039 ± 0.055 | -0.0135 ± 0.0021 | -0.0205 ± 0.0078
11 | LPS:M-CSF | -0.0225 ± 0.016 | -0.0445 ± 0.039 | -0.0265 ± 0.0078 | -0.0515 ± 0.012 | -0.0035 ± 0.032 | 0.05 ± 0.04 | 0.049 ± 0.0028 | -0.001 ± 0.045 | 0.035 ± 0.024 | -0.005 ± 0.02 | 0.0145 ± 0.035 | 0.022 ± 0.023 | -0.0095 ± 0.059 | 0.026 ± 0.028 | -0.0085 ± 0.032 | -0.041 ± 0.027 | 0.005 ± 0.057 | 0.029 ± 0.044
12 | LPS:SRB | 0.008 ± 0.0085 | -0.012 ± 0.0071 | -0.003 ± 0.0099 | 0.006 ± 0.031 | 0.009 ± 0.0057 | -0.0625 ± 0.0078 | 0.005 ± 0.0057 | -0.0065 ± 0.00071 | 0.0045 ± 0.0078 | -0.008 ± 0.0042 | -0.0125 ± 0.005 | -0.001 ± 0.0085 | -0.0175 ± 0.0021 | -0.012 | -0.0145 ± 0.0064 | -0.012 ± 0.0057 | -0.0145 ± 0.0092 | -0.006 ± 0.0014
